Experimental data taken from patent US12721853B2, “Applications of CX-5461 in treating immune rejection in renal transplantation” (Sun Yat-sen University, priority 2022, dated 2026).

Key:
[1] = system: transplanted kidney; test: H&E staining and immunohistochemical staining (anti-IL-17A) of transplanted kidney; type: in vivo, rat; details: seventh day after renal transplantation
[2] = system: Pol II; details: cited from earlier work
[3] = Survival of rats after renal transplantation; type: in vivo, rat; details: compared with acute rejection group
Text: (§1) • (1) Lewis male rats and Brown Norway male rats are purchased from Beijing Vital River Laboratory Animal Technology Co., Ltd., with weight of around 200 g and age of 6-8 weeks old, and the rearing environment is of SPF level. • (2) Establishment of acute rejection model after renal transplantation in rats: the donor of Brown Norway male rats aged 6-8 weeks, about 200 g, is transplanted into Lewis male rats, and the surgical scheme is end-to-end renal vein anastomosis as reported in most literatures. The experimental groups are divided into normal group (Control) of donor rats, acute rejection (AR) group and drug group (CX5461 of 2 mg/kg) with 5 rats each. After successful renal transplantation, the rats are killed at 3 days, 5 days and 7 days after operation, and blood is collected from the lower abdominal aorta by using a 5 mL sterile syringe. […] Subsequently, the concentration and purity of total RNA are measured using a Nanodrop. Using the RNA as a template, reverse transcription is performed by reverse transcription kit of Beijing TransGen Biotech Company to obtain a cDNA template, and quantitative PCR analysis is carried out by using this cDNA as a template and using TransGen qPCR kit according to the instructions and the detection primers shown in Table 1 below.

[4] = system: Pol I-driven rRNA transcription; details: cited from earlier work
[5] = system: IL-6, IL-10 cytokines in serum; test: ELISA of cytokines in serum after renal transplantation; type: in vivo, rat; details: seventh day after renal transplantation, compared with AR group, ***P<0.001
Text: as §1, with “below. […]” for “below.”

[6] = system: renal implants; test: Appearance of the kidney graft, acute rejection model after renal transplantation in rats; type: in vivo, rat; details: seventh day after renal transplantation, CX5461 of 2 mg/kg, compared with acute rejection group (AR)
Text: as §1

[7] = Creatinine and urea nitrogen levels in blood after renal transplantation; type: in vivo, rat
Text: • (1) Lewis male rats and Brown Norway male rats are purchased from Beijing Vital River Laboratory Animal Technology Co., Ltd., with weight of around 200 g and age of 6-8 weeks old, and the rearing environment is of SPF level. • (2) Establishment of acute rejection model after renal transplantation in rats: the donor of Brown Norway male rats aged 6-8 weeks, about 200 g, is transplanted into Lewis male rats, and the surgical scheme is end-to-end renal vein anastomosis as reported in most literatures. The experimental groups are divided into normal group (Control) of donor rats, acute rejection (AR) group and drug group (CX5461 of 2 mg/kg) with 5 rats each. […] The collected blood is placed in a procoagulants tube at room temperature for 1 h, centrifuged at 4000 r/min in a centrifuge at 4° C. for 10 min, and the obtained serum is packaged in an EP tube and frozen at −80° C. for enzyme-linked immunosorbent assay (ELISA) detection. The removed transplanted kidney is cut in half along the longitudinal axis and soaked in 4% paraformaldehyde for pathological reaction verification. • (3) Real-time RT-PCR analysis: RNA is extracted from rat spleen by using Trizol method, and the specific operation is as follows: 1 mL of Trizol is added to the EP tube containing rat spleen and placed in the refrigerator at 4° C. for 10 min; then, porcelain beads are added into it and put into an automatic grinder, and ground at 4° C. for 5 min; 0.2 mL chloroform (i.e., ⅕ Trizol volume) is added into the EP tube, followed by shaking vigorously for about 20 times, then centrifuging at 12,500 rpm at 4° C. for 15 min; the obtained upper aqueous phase is placed in a new EP tube and carefully aspirated about 3 times with a 200 μL gun tip, and approximately an equal volume of isopropanol (i.e., 600 μL) is added, and the RNA is precipitated by centrifugation at 12,500 rpm for 15 min at 4° C., at which time a white RNA precipitate is seen. Then, 1 ml of 75% ethanol is added for washing twice, followed by centrifugation at 12500 rpm and 4° C. for 5 min. The supernatant is discarded and the precipitated RNA is allowed to dry naturally in an ultra-clean bench. RNA is obtained by dissolving the RNA precipitate with 100 μL of Rnase-free water. Subsequently, the concentration and purity of total RNA are measured using a Nanodrop. Using the RNA as a template, reverse transcription is performed by reverse transcription kit of Beijing TransGen Biotech Company to obtain a cDNA template, and quantitative PCR analysis is carried out by using this cDNA as a template and using TransGen qPCR kit according to the instructions and the detection primers shown in Table 1 below.

[8] = system: IL-6, IL-10, IL-17A cytokines in spleen; test: Real-time RT-PCR of cytokines in spleen after renal transplantation; type: in vivo, rat; details: seventh day after renal transplantation, compared with AR group, ***P<0.001
Text: as §1, with “syringe. The collected blood is placed in a procoagulants tube at room temperature for 1 h, centrifuged at 4000 r/min in a centrifuge at 4° C. for 10 min, and the obtained serum is packaged in an EP tube and frozen at −80° C. for enzyme-linked immunosorbent assay (ELISA) detection.” for “syringe.”

[9] = system: Treg cells in the spleen; test: CD4+CD25+Foxp3+ flow cytometry of spleen; type: in vivo, rat; details: seventh day after renal transplantation
[10] = third, fifth and seventh day after renal transplantation, AR group continues to increase
[11] = within 42 days after renal transplantation

With `Cc1cnc(CNC(=O)c2c(=O)c3ccc(N4CCCN(C)CC4)nc3n3c2sc2ccccc23)cn1` [CX-5461] the “IL-17A cytokine in kidney transplant (immunohistochemistry)” value [1] was “reducing the levels of IL-17A cytokine”, the “changes in renal tubules (H&E staining)” value [1] was “no obvious changes in renal tubules” and the “glomerulus shrinkage (H&E staining)” value [1] was “no obvious shrinkage”. The “infiltration of inflammatory cells (staining)” value [1] was “no obvious infiltration of inflammatory cells”, the “renal fibrosis (staining)” value [1] was “reduced renal fibrosis” and the “effect on Pol II” value [2] was “no effect”. The “survival time of rats after renal transplantation” value [3] was “significantly longer”, the IC50 ([4]; HCT-116, A375, and MIA PaCa-2 cells, read-out: IC50, inhibition of Pol I-driven rRNA transcription) was 142 nM and the “selectivity of rRNA transcription inhibition over DNA replication and protein translation” value [4] was 250- to 300 fold. For the same compound, the “IL-6 cytokine in serum” value [5] was “significantly down-regulated”, the “IL-10 cytokine in serum” value [5] was “up-regulated” and the “inflammatory immune infiltration, appearance of the kidney graft” value [6] was “no obvious inflammatory immune infiltration”. For the same compound, the “renal fibrosis, appearance of the kidney graft” value [6] was “less renal fibrosis”, the creatinine level [7, 10] was “remain at a low level” and the urea nitrogen level [7, 10] was “remain at a low level”. The creatinine level [7, 11] was “remain at a relatively low level”, the urea nitrogen level [7, 11] was “remain at a relatively low level” and the “IL-6 cytokine in spleen” value [8] was “significantly down-regulated”. The “IL-10 cytokine in spleen” value [8] was “significantly up-regulated”, the “IL-17A cytokine in spleen” value [8] was “significantly down-regulated” and the “proportion of Treg cells (CD4+CD25+Foxp3+) in the spleen” value [9] was “obviously increased”.
